Seven compounds from ChEMBL document CHEMBL4400545 (Bioorg Med Chem, 2019) can be followed below.

pIC50, pKi: −log10 of the molar value.

The target of experiment [1] is T1, Sodium- and chloride-dependent GABA transporter 1 (Rattus norvegicus, UniProt P23978). Nature of the experiment: Inhibition of GAT-1 in rat brain homogenate. It is filed as tissue-based.
Experiment [2] concerns the target T2, Sodium- and chloride-dependent GABA transporter 1 (Mus musculus, UniProt P31648). Briefly: Binding affinity to mouse GAT-1 expressed in HEK293 cells after 4 hrs in presence of NO711 by LC-ESI-MS/ms analysis. In kind it is cell-based.
A further experiment addresses T3, GABA transporter 4 (Mus musculus, UniProt P31650).
T3 sequence (P31650 whole entry): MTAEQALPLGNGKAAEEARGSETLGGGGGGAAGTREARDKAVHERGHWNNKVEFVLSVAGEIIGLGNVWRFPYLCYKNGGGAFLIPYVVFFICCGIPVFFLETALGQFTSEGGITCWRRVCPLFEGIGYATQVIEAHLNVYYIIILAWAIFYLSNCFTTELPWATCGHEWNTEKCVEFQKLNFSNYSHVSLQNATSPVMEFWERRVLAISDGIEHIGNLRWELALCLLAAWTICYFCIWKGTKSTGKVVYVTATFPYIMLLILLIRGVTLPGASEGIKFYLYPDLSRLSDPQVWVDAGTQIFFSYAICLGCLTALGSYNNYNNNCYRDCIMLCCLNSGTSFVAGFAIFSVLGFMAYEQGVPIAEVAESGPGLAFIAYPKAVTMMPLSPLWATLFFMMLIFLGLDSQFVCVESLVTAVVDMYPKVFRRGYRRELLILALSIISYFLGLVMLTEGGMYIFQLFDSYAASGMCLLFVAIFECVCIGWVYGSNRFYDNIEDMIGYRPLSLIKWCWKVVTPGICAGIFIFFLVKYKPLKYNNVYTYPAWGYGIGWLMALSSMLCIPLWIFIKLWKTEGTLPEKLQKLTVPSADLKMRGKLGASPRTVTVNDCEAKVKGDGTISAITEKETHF
Nature of the experiment: Inhibition of mouse GAT-4 expressed in HEK293 cells assessed as decrease in [3H]GABA uptake preincubated for 25 mins followed by [3H]GABA addition and measured after 4 mins by scintillation counting analysis. It is filed as cell-based.

Experiment [3] concerns the target T2, Sodium- and chloride-dependent GABA transporter 1. Briefly: Inhibition of mouse GAT-1 expressed in HEK293 cells assessed as decrease in [3H]GABA uptake preincubated for 25 mins followed by [3H]GABA addition and measured after 4 mins by scintillation counting analysis. It is filed as cell-based.
For experiment [4], the target named is T1, Sodium- and chloride-dependent GABA transporter 1. Briefly: Inhibition of GAT-1 in rat brain homogenate assessed as decrease in [3H]GABA uptake preincubated for 8 mins followed by [3H]GABA addition and measured after 8 mins by scintillation counting analysis. In kind it is tissue-based.
Experiment [5] concerns the target Sodium- and chloride-dependent GABA transporter 1 (Mus musculus) (UniProt P31648). Briefly: Inhibition of mouse GAT-1 assessed as percentage of remaining specific binding of NO711 at 1 uM after 4 hrs by LC-ESI-MS/ms analysis relative to control.
Experiment [6] has the same target. Nature of the experiment: Inhibition of mouse GAT-1 assessed as percentage of remaining specific binding of NO711 at 100 nM after 4 hrs by LC-ESI-MS/ms analysis relative to control.
Experiment [7] shares this target. Nature of the experiment: Inhibition of mouse GAT-1 assessed as percentage of remaining specific binding of NO711 at 40 uM after 4 hrs by LC-ESI-MS/ms analysis relative to control.
Experiment [8] shares this target. Nature of the experiment: Inhibition of mouse GAT-1 assessed as percentage of remaining specific binding of NO711 at 4 uM after 4 hrs by LC-ESI-MS/ms analysis relative to control.

In experiment [1], `O=C(O)[C@@H]1CCCN(CCO/N=C(\Cc2ccccc2F)c2ccccc2F)C1` had a pIC50 of 7.10.
As for `O=C(O)[C@@H]1CCCN(CCO/N=C/c2ccccc2-c2ccc(Cl)cc2Cl)C1`, the pKi in [2] is 8.23. For the same compound, the negative logarithm of the IC50 (pIC50) is 4.20 at GABA transporter 4 and 7.22 in experiment [3].
Regarding `O=C(O)C1=CCCN(CCON=C(c2ccccc2)c2ccccc2)C1`, the pIC50 in experiment [4] was 7.40.
Turning to `O=C(O)C1CCCN(CCO/N=C/c2ccccc2-c2ccc(Cl)cc2Cl)C1` (racemic), the Activity in experiment [5] was 5%; in experiment [6] it was “Below limit of detection”. Besides, the pKi in experiment [2] was 7.98. Further, the pIC50 is 4.15 at GABA transporter 4 and 7.41 in [3].
As to `O=C(O)C1CCCN(CCO/N=C/c2cc(F)ccc2-c2ccc(Cl)cc2Cl)C1` (racemic), the values for the Activity in [5] and in [6] were 16% and “Below limit of detection”, respectively. Moreover, the pKi in experiment [2] was 7.77. Moreover, the pIC50 at GABA transporter 4 is 4.49; in experiment [3], 6.77.
Take `O=C(O)C1CCCN(CCO/N=C/c2sccc2-c2ccc(Cl)cc2Cl)C1` (racemic): the Activity was 12% in experiment [5] and “Below limit of detection” in experiment [6]. The pKi in experiment [2] was 7.93. Moreover, the pIC50 at GABA transporter 4 was 4.14; in experiment [3] it was 7.55.
Take `NOCCN1CCCC(C(=O)O)C1` (racemic): the Activity worked out at 92% in experiment [7] and 99% in [8].

The term pIC50 denotes −log10 of the IC50, conventionally taken in molar units. Usually pKi stands for the negative decadic logarithm of the Ki, by convention in mol/L.
